Test [1] deals with Anopheles gambiae (target-site-resistant and metabolic-resistant strain: RSPH). The experiment in a line: Glazed tile contact test, knock-down. Type of test: in vivo. The method, then:
(§1) To produce a suitable preparation Transfluthrin was dissolved in acetone. The active compound solution was pipetted onto a glazed tile and, after drying, adult mosquitoes of the species: • Anopheles gambiae (target-site-resistant and metabolic-resistant strain: RSPH), • Anopheles gambiae (target-site-resitant and metabolic-resistant strain: Tiassalé), • Anopheles gambiae (tar et-site-resitant and metabolic-resistant strain: Akron), • Anopheles gambiae (target-site-resistant strain: VK7), and • Anopheles funestus (metabolic-resistant strain FUMOZ-R) were placed onto the treated tile (each strain was tested on separate tiles). The exposition time was 30 minutes.
(§2) 0.25 hours, 0.5 hours, 1 hour, 2 hour, 3 hour, 4 hour and 24 hours after contact to the treated surface, the knock-down proportion of the test animals in % was determined. Here, 100% (effect) means that all mosquitoes have been killed; 0% (effect) means that none of the mosquitoes have been killed.
(§3) Similarly as outlined in example 2 for Transfluthrin, Metofluthrin efficacy was assessed against • Anopheles gambiae (target-site-resistant and metabolic-resistant strain: RSPH), • Anopheles funestus (metabolic-resistant strain FUMOZ-R), and • Culex quinquefasciatus (metabolic-resistant to DDT; strain P00), with the results shown in Tables 10 to 12. 0.25 hours, 0.5 hours, 1 hour, 2 hour, 3 hour, 4 hour and 24 hours after contact to the treated surface, the knock-down proportion of the test animals in % is depicted in Tables 10 to 12. 100% (effect) means that all mosquitoes have been killed; 0% (effect) means that none of the mosquitoes have been killed.
(§4) Similarly as outlined in example 2 for Transfluthrin, Metofluthrin efficacy was assessed against • Anopheles gambiae (target-site-resistant and metabolic-resistant strain: RSPH), • Anopheles funestus (metabolic-resistant strain FUMOZ-R), and with the results shown in Tables […]. 0.25 hours, 0.5 hours, 1 hour, 2 hour and 3 hours after contact to the treated surface, the knock-down proportion of the test animals in % is depicted in Tables 13 to 14. 100% (effect) means that all mosquitoes have been killed; 0% (effect) means that none of the mosquitoes have been killed.

The test system of test [2] is Anopheles funestus (metabolic-resistant strain FUMOZ-R). Briefly: Glazed tile contact test, knock-down. Type of test: in vivo. The protocol: as §1, §2, §3, §4

Take `COCc1c(F)c(F)c(COC(=O)C2C(C=C(C)C#N)C2(C)C)c(F)c1F` (centres unmarked) [Momfluorothrin, 2,3,5,6-Tetrafluoro-4-(methoxymethyl)benzyl 3-(2-cyano-1-propen-1-yl)-2,2-dimethylcyclopropanecarboxylate]: the Effect % turned out to be 10% in test [1] (1.6 g/ha, 0.25 h after contact); 7% in test [1] (1.6 g/ha, 0.5 h after contact); 35% in test [1] (1.6 g/ha, 1 h after contact); 14% in test [1] (1.6 g/ha, 2 h after contact); 14% in test [1] (1.6 g/ha, 3 h after contact); 100% in test [1] (40 g/ha, 0.25 h after contact). For the same compound, the Effect % is 100% in test [1] (40 g/ha, 0.5 h after contact); 100% in test [1] (40 g/ha, 1 h after contact); 100% in test [1] (40 g/ha, 2 h after contact); 100% in test [1] (40 g/ha, 3 h after contact); 0% in test [2] (1.6 g/ha, 0.25 h after contact); 0% in test [2] (1.6 g/ha, 0.5 h after contact). Moreover, the Effect % in test [2] (1.6 g/ha, 1 h after contact) stood at 0%; in test [2] (1.6 g/ha, 2 h after contact) it was 10%; in test [2] (1.6 g/ha, 3 h after contact), 20%; in test [2] (40 g/ha, 0.25 h after contact), 100%; in test [2] (40 g/ha, 0.5 h after contact) it was 100%; in test [2] (40 g/ha, 1 h after contact) it was 100%. Moreover, the Effect % in test [2] (40 g/ha, 2 h after contact) was determined as 90%; in test [2] (40 g/ha, 3 h after contact), 100%.

The record behind these values is patent publication US20150289513A1, “USE OF A COMPOUND COMPRISING A POLYFLUOROBENZYL MOIETY AGAINST INSECTICIDE-RESISTANT PESTS” (priority 2012, published 2015).
